# Patent publication US20190055576A1, “USE OF HERBICIDE-TOLERANT PROTEIN” (BEIJING DABEINONG TECHNOLOGY GROUP CO., LTD., priority 2016, published 2019)
# Experiments:
# [1] = tested on: transgenic Arabidopsis thaliana T1 plants (ALT-1-01, ALT-2-01, ALT-3-01; cytoplasmic or chloroplastic); experiment: Herbicide tolerance of transgenic Arabidopsis thaliana T1 plants expressing thifensulfuron hydrolase, resistance classes counted after spraying; format: in vivo; conditions: for Highly resistant (number of plants with growth status consistent with blank solvent group) / Moderately resistant (number of plants with bolting height less than 1/2 of blank solvent group) / Non-resistant (number of plants dead) / Poorly resistant (number of plants still not capable of bolting): 1-fold field concentration (g ai/ha: Sulfometuron-methyl 30, iodosulfuron-methyl 10, mesosulfuron 14, oxasulfuron 60), 14 days after spraying; for ability of the transformed plants to degrade the herbicide: all the transformed Arabidopsis thaliana T1 plants (ALT-1, ALT-2 and ALT-3), 1-fold field concentration
# Description: (§1) T1 transformants were initially selected from the background of untransformed seeds using a glufosinate selection scheme. About 40000 T1 seeds were screened, and 380 T1 positive transformants (PAT gene) were identified with a transformation efficiency of about 0.95%. The plants that were transformed with the recombinant expression vector DBN100632 were Arabidopsis thaliana plants having an ALT-1-01 nucleotide sequence located in the cytoplasm introduced (At cytoplasmic ALT-1-01), and the plants that were transformed with the recombinant expression vector DBN100631 were Arabidopsis thaliana plants having an ALT-1-01 nucleotide sequence located in the chloroplast introduced (At chloroplastic ALT-1-01); the plants that were transformed with the recombinant expression vector DBN100634 were Arabidopsis thaliana plants having an ALT-2-01 nucleotide sequence located in the cytoplasm introduced (At cytoplasmic ALT-2-01), and the plants that were transformed with the recombinant expression vector DBN100633 were Arabidopsis thaliana plants having an ALT-2-01 nucleotide sequence located in the chloroplast introduced (At chloroplastic ALT-2-01); and the plants that were transformed with the recombinant expression vector DBN100636 were Arabidopsis thaliana plants having an ALT-3-01 nucleotide sequence located in the cytoplasm introduced (At cytoplasmic ALT-3-01), and the plants that were transformed with the recombinant expression vector DBN100635 were Arabidopsis thaliana plants having an ALT-3-01 nucleotide sequence located in the chloroplast introduced (At chloroplastic ALT-3-01). The herbicide tolerance effects of At cytoplasmic ALT-1-01 T1 plants, At chloroplastic ALT-1-01 T1 plants, At cytoplasmic ALT-2-01 T1 plants, At chloroplastic ALT-2-01 T1 plants, At cytoplasmic ALT-3-01 T1 plants, At chloroplastic ALT-3-01 T1 plants and wild-type Arabidopsis thaliana plants on Sulfometuron-methyl were detected (14 days after sowing), respectively.
# (§2) At cytoplasmic ALT-1-01 T1 plants, At chloroplastic ALT-1-01 T1 plants, At cytoplasmic ALT-2-01 T1 plants, At chloroplastic ALT-2-01 T1 plants, At cytoplasmic ALT-3-01 T1 plants, At chloroplastic ALT-3-01 T1 plants and wild-type Arabidopsis thaliana plants were sprayed with Sulfometuron-methyl (30 g ai/ha, 1-fold field concentration) and a blank solvent (water), respectively. Plants were counted for the resistance situations 14 days after spraying: those having a consistent growth status with the blank solvent (water) group after 14 days were classified as highly resistant plants, those having a bolting height less than ½ of that of the blank solvent (water) group after 14 days were classified as moderately resistant plants, those still not capable of bolting after 14 days were classified as poorly resistant plants, and those dead after 14 days were classified as non-resistant plants. Since each Arabidopsis thaliana T1 plant was an independent transformation event, a significant difference in individual T1 responses could be expected at a given dose.
# (§3) At cytoplasmic ALT-1-01 T1 plants, At chloroplastic ALT-1-01 T1 plants, At cytoplasmic ALT-2-01 T1 plants, At chloroplastic ALT-2-01 T1 plants, At cytoplasmic ALT-3-01 T1 plants, At chloroplastic ALT-3-01 T1 plants and wild-type Arabidopsis thaliana plants in Example 4 were sprayed with iodosulfuron-methyl (10 g ai/ha, 1-fold field concentration), mesosulfuron (14 g ai/ha, 1-fold field concentration) and oxasulfuron (60 g ai/ha, 1-fold field concentration), respectively, in addition to Sulfometuron-methyl (30 g ai/ha, 1-fold field concentration) and the blank solvent (water). […]
# [2] = tested on: wild-type Arabidopsis thaliana plants; experiment: Herbicide tolerance of wild-type Arabidopsis thaliana plants, resistance classes counted after spraying; format: in vivo; conditions: 1-fold field concentration (g ai/ha: Sulfometuron-methyl 30, iodosulfuron-methyl 10, mesosulfuron 14, oxasulfuron 60), 14 days after spraying
# Description: as §1, §2, §3
# [3] = At chloroplastic ALT-1-01 T1 plants
# [4] = At chloroplastic ALT-2-01 T1 plants
# [5] = At chloroplastic ALT-3-01 T1 plants
# [6] = At cytoplasmic ALT-1-01 T1 plants
# [7] = At cytoplasmic ALT-2-01 T1 plants
# [8] = At cytoplasmic ALT-3-01 T1 plants
SMILES,"Highly resistant (number of plants with growth status consistent with blank solvent group) [1, 3]","Moderately resistant (number of plants with bolting height less than 1/2 of blank solvent group) [1, 3]","Non-resistant (number of plants dead) [1, 3]","Poorly resistant (number of plants still not capable of bolting) [1, 3]","Highly resistant (number of plants with growth status consistent with blank solvent group) [1, 4]","Moderately resistant (number of plants with bolting height less than 1/2 of blank solvent group) [1, 4]","Non-resistant (number of plants dead) [1, 4]","Poorly resistant (number of plants still not capable of bolting) [1, 4]","Highly resistant (number of plants with growth status consistent with blank solvent group) [1, 5]","Moderately resistant (number of plants with bolting height less than 1/2 of blank solvent group) [1, 5]","Non-resistant (number of plants dead) [1, 5]","Poorly resistant (number of plants still not capable of bolting) [1, 5]","Highly resistant (number of plants with growth status consistent with blank solvent group) [1, 6]","Moderately resistant (number of plants with bolting height less than 1/2 of blank solvent group) [1, 6]","Non-resistant (number of plants dead) [1, 6]","Poorly resistant (number of plants still not capable of bolting) [1, 6]","Highly resistant (number of plants with growth status consistent with blank solvent group) [1, 7]","Moderately resistant (number of plants with bolting height less than 1/2 of blank solvent group) [1, 7]","Non-resistant (number of plants dead) [1, 7]","Poorly resistant (number of plants still not capable of bolting) [1, 7]",further results
COC(=O)c1ccc(I)cc1S(=O)(=O)NC(=O)Nc1nc(C)nc(OC)n1 [iodosulfuron-methyl],0,0,30,0,0,0,31,0,0,0,32,0,0,0,29,0,0,0,30,0,"Highly resistant (number of plants with growth status consistent with blank solvent group) [1, 8]: 0; Moderately resistant (number of plants with bolting height less than 1/2 of blank solvent group) [1, 8]: 0; Non-resistant (number of plants dead) [1, 8]: 30; Poorly resistant (number of plants still not capable of bolting) [1, 8]: 0; ability of the transformed plants to degrade the herbicide [1]: did not exhibit the ability to degrade; Highly resistant (number of plants with growth status consistent with blank solvent group) [2]: 0; Moderately resistant (number of plants with bolting height less than 1/2 of blank solvent group) [2]: 0; Non-resistant (number of plants dead) [2]: 29; Poorly resistant (number of plants still not capable of bolting) [2]: 0"
COc1cc(OC)nc(NC(=O)NS(=O)(=O)c2cc(CNS(C)(=O)=O)ccc2C(=O)O)n1 [mesosulfuron],0,0,32,0,0,0,30,0,0,0,32,0,0,0,29,0,0,0,32,0,"Highly resistant (number of plants with growth status consistent with blank solvent group) [1, 8]: 0; Moderately resistant (number of plants with bolting height less than 1/2 of blank solvent group) [1, 8]: 0; Non-resistant (number of plants dead) [1, 8]: 30; Poorly resistant (number of plants still not capable of bolting) [1, 8]: 0; ability of the transformed plants to degrade the herbicide [1]: did not exhibit the ability to degrade; Highly resistant (number of plants with growth status consistent with blank solvent group) [2]: 0; Moderately resistant (number of plants with bolting height less than 1/2 of blank solvent group) [2]: 0; Non-resistant (number of plants dead) [2]: 28; Poorly resistant (number of plants still not capable of bolting) [2]: 0"
Cc1cc(C)nc(NC(=O)NS(=O)(=O)c2ccccc2C(=O)OC2COC2)n1 [oxasulfuron],0,0,30,0,0,0,30,0,0,0,31,0,0,0,28,0,0,0,30,0,"Highly resistant (number of plants with growth status consistent with blank solvent group) [1, 8]: 0; Moderately resistant (number of plants with bolting height less than 1/2 of blank solvent group) [1, 8]: 0; Non-resistant (number of plants dead) [1, 8]: 30; Poorly resistant (number of plants still not capable of bolting) [1, 8]: 0; ability of the transformed plants to degrade the herbicide [1]: did not exhibit the ability to degrade; Highly resistant (number of plants with growth status consistent with blank solvent group) [2]: 0; Moderately resistant (number of plants with bolting height less than 1/2 of blank solvent group) [2]: 0; Non-resistant (number of plants dead) [2]: 28; Poorly resistant (number of plants still not capable of bolting) [2]: 0"
